In patent publication US10722505B2, “Substituted 2,4 diamino-quinoline as new anticancer agents” (GENOSCIENCE PHARMA, priority 2014, dated 2020):
Counter-ions that a name gives are not always drawn.

How the values were obtained:
Type in all cases: cell-based
MOLM-14 cell line = test: CellTiter-Glo cell viability / growth inhibition assay, MOLM-14 (Example 5); conditions: Homo sapiens, 72 h; for viability at 4 µM / viability at 10 µM: MOLM-14
Procedure: (§1) All cell lines were maintained in medium containing 1% penicillin-streptomycin (Dutscher, P06-07100) and 10% Fetal Bovine Serum (Gibco, W3387L) except 20% for KG-1 cell line and PBMC, and cultured at 37° C. with 5% CO2.
MOLM-14 cell line was maintained in MEM alpha medium (Gibco, 22561-021).
(§2) Cell viability was measured using the CellTiter-Glo® luminescent cell viability assay as described by the manufacturer (Promega, Ref G7571) using an Infinite F200Pro luminometer (Tecan). Briefly, for adherent cells, cells were plated onto 96-well plates (white with clear bottom) in 90 μL of media per well and were allowed to grow overnight before the assay. For cells growing in suspension, cells were plated onto 96-well plates immediately before the assay.
(§3) Compounds were added at different concentrations to each well, and cell cultures were incubated for 72 h. Vehicle (H2O) was used as a control, and all compounds were tested in a constant percentage of H2O. After addition of 100 μL of CellTiter-Glo®, luminescence was measured using an Infinite F200Pro (Tecan). EC50 values were determined as the dose of compound required to reduce luminescent values to 50% of the signal obtained for untreated cell cultures. The experimental data were analyzed using a computer program, Graphpad Prism v5 (GraphPad Software, Inc. La Jolla, Calif.).
All experiments were at least done in duplicate and repeated two independent times.

HepG2 cell line = test: CellTiter-Glo growth inhibition assay, HepG2; conditions: Homo sapiens; HepG2, hepatocellular carcinoma, 72 h
Procedure: as §1
(§4) HepG2, Huh7, HCT-116, MDA-MB-231 and A375 cell lines were cultured in Dulbecco's modified Eagle's medium (Dutscher, L0103).
as §2
as §3, with “Calif.). […]” for “Calif.).”

A375 cell line = test: CellTiter-Glo growth inhibition assay, A375; conditions: Homo sapiens, A-375; A375, malignant melanoma, 72 h
Procedure: as §1, §4, §2
as §3, with “Calif.). […]” for “Calif.).”

HCT-116 cell line = test: CellTiter-Glo growth inhibition assay, HCT-116; conditions: Homo sapiens; HCT-116, colorectal carcinoma, 72 h
Procedure: as §1, §4, §2
as §3, with “Calif.). […]” for “Calif.).”

BEL-7402 cells line = test: CellTiter-Glo growth inhibition assay, BEL-7402 (internal control); conditions: Homo sapiens, 72 h
Procedure: When performing the assay, dose response test of Doxorubicin on BEL-7402 cells line (human primary hepatocellular carcinoma) will be used as internal control in each assay plate for the assay. The MEM medium supplemented with 5% H2O (5×) will be added into the cells as a negative controls. The final H2O concentration was 1% in each well.
Cells in log-phase are collected and counted. Cell suspensions are added to each well of 384-well plate at 800 cells per well (total volume 40 μl). The margin wells are filled with PBS buffer. Test compound at various concentrations are added in duplicates (add 10 μl 5× compound solutions to the plate). The assay plate is incubated for 72 h in 37° C./5% CO2 incubator. Cell viability was measured using the CellTiter-Glo® luminescent cell viability assay as described by the manufacturer (Promega, Ref G7571). After addition of 100 μL of CellTiter-Glo® reactifs solution, luminescence was measured using a PHERAstar Plus luminometer. Data were recorded by PHERAstar Plus, Data acquisition and analysis were performed using Microsoft Excel program and GraphPad Prism v.6 software.

EC50 (HepG2 cell line) [µM] | EC50 (A375 cell line) [µM] | EC50 (HCT-116 cell line) [µM] | EC50 (MOLM-14 cell line; MOLM-14, acute myeloïd leukemia, FLT3-ITD heterozygote+/−) [µM] | EC50 (BEL-7402 cells line) [µM] | SMILES | viability at 4 µM (MOLM-14 cell line) [%] | viability at 10 µM (MOLM-14 cell line) [%]
 |  |  |  |  | CC(C)(C)NC1CCN(c2cc(Nc3ccc(Cl)cc3)nc3ccccc23)CC1 [Compound 1-6, 2-(4-chlorophenylamino)-4-(4-tert-butylaminopiperidin-1-yl)-quinoline hydrochloride salt] | 71.8 | 12.1
6.3 | 1.4 | 1.8 | 2.3 |  | Cc1cc(Nc2cc(N3CCC(NC(C)(C)C)CC3)c3ccccc3n2)ccc1Nc1nccc(-c2cccnc2)n1 [Compound 4-3, 2-{4-[4-(pyridin-3-yl)-2-pyrimidinamino]-3-methyl-phenylamino}-4-(4-tert-butylaminopiperidin-1-yl)-quinoline hydrochloride salt] | 0.5 | 0.2
 |  |  |  |  | Cc1cc(Nc2cc(N3CCC(NC(C)(C)C)CC3)c3ccccc3n2)ccc1Nc1ncccn1 [Compound 3-5, 2-[3-methyl-4-(pyrimidin-2-ylamino)phenylamino]-4-(4-tert-butylaminopiperidin-1-yl)-quinoline hydrochloride salt] | 78.7 | 8.7
 |  |  |  | 0.15 | COc1cccc2c1C(=O)c1c(O)c3c(c(O)c1C2=O)C[C@@](O)(C(=O)CO)C[C@@H]3O[C@H]1C[C@H](N)[C@H](O)[C@H](C)O1 [Doxorubicin] |  | 
